Laboratory results as given in PubChem BioAssay AID330 (DTP/NCI, 2004).
Toxic doses and inconclusive results are not listed. The calls were made as follows: active = survival T/C of 150% or more; inactive = T/C below 125% in these data.

Tested on: P388 leukemia ip, CD2F1 mice, survival T/C
Test: NCI In Vivo Anticancer Drug Screen. Data for tumor model P388 Leukemia (intraperitoneal) in CD2F1 (CDF1) mice
Settings: endpoint: median survival time, higher = longer survival
How it was run: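 Mice carrying the transplanted tumor received test compound or vehicle. Survival was recorded in each group, and the value is the treated-group measurement divided by that of the vehicle-treated control group.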

[1] = dose: 60.0 mg/kg/injection, schedule: Q01DX005 (ip), vehicle: Klucel (hydroxypropylcellulose) (HPC)
[2] = dose: 120.0 mg/kg/injection, schedule: Q01DX005 (ip), vehicle: Klucel (hydroxypropylcellulose) (HPC)
[3] = dose: 240.0 mg/kg/injection, schedule: Q01DX005 (ip), vehicle: Klucel (hydroxypropylcellulose) (HPC)
[4] = dose: 60.0 mg/kg/injection, schedule: Q01DX005 (ip), vehicle: saline with Tween-80
[5] = dose: 120.0 mg/kg/injection, schedule: Q01DX005 (ip), vehicle: saline with Tween-80
[6] = dose: 240.0 mg/kg/injection, schedule: Q01DX005 (ip), vehicle: saline with Tween-80

Measured: T/C

Cc1cc2nnc(-c3ccc(C#N)cc3)n2c2nnnn12
inactive: dose: 25.0 mg/kg/injection, schedule: Q01DX005 (ip), vehicle: saline with Tween-80 100 % of control | dose: 50.0 mg/kg/injection, schedule: Q01DX005 (ip), vehicle: saline with Tween-80 100 % of control | dose: 100.0 mg/kg/injection, schedule: Q01DX005 (ip), vehicle: saline with Tween-80 104 % of control | dose: 200.0 mg/kg/injection, schedule: Q01DX005 (ip), vehicle: saline with Tween-80 104 % of control

O=C1NC(c2cccc(OCc3ccccc3)c2)Nc2ccccc21 (centres undefined)
inactive: dose: 3.13 mg/kg/injection, schedule: Q01DX009 (ip), vehicle: Klucel (hydroxypropylcellulose) (HPC) 94 % of control | dose: 6.25 mg/kg/injection, schedule: Q01DX009 (ip), vehicle: Klucel (hydroxypropylcellulose) (HPC) 107 % of control | dose: 12.5 mg/kg/injection, schedule: Q01DX009 (ip), vehicle: Klucel (hydroxypropylcellulose) (HPC) 102 % of control | dose: 25.0 mg/kg/injection, schedule: Q01DX009 (ip), vehicle: Klucel (hydroxypropylcellulose) (HPC) 100 % of control | dose: 50.0 mg/kg/injection, schedule: Q01DX009 (ip), vehicle: Klucel (hydroxypropylcellulose) (HPC) 109 % of control | dose: 100.0 mg/kg/injection, schedule: Q01DX009 (ip), vehicle: Klucel (hydroxypropylcellulose) (HPC) 115 % of control | dose: 200.0 mg/kg/injection, schedule: Q01DX009 (ip), vehicle: Klucel (hydroxypropylcellulose) (HPC) 102 % of control

Cc1c(Br)c(C)[n+]([O-])n1O
inactive: [1] 99 % of control | [2] 95 % of control

OCCCOc1ccc(OCCCO)cc1
inactive: [1] 100 % of control | [2] 99 % of control | [3] 103 % of control

CC1=CC(=O)C=CC1=Nc1ccc(N(C)C)cc1
inactive: dose: 25.0 mg/kg/injection, schedule: Q01DX009 (ip), vehicle: saline with Tween-80 108 % of control | dose: 50.0 mg/kg/injection, schedule: Q01DX009 (ip), vehicle: saline with Tween-80 109 % of control

Nc1ncnc2c1c(-c1ccccc1)cn2-c1ccc(Cl)cc1
inactive: [4] 104 % of control | [5] 99 % of control | [6] 88 % of control

Cc1ccc(-n2cnc3sc4c(c3c2=O)CCCC4)cc1
inactive: [1] 100 % of control | [2] 89 % of control | [3] 90 % of control

COc1ccc2c(c1O)C1=CC(O)CCC13CCN(C)C3C2 (centres undefined)
inactive: dose: 100.0 mg/kg/injection, schedule: Q04DX002 (ip), vehicle: suspension in saline 100 % of control | dose: 200.0 mg/kg/injection, schedule: Q04DX002 (ip), vehicle: suspension in saline 96 % of control | dose: 400.0 mg/kg/injection, schedule: Q04DX002 (ip), vehicle: suspension in saline 103 % of control

Cc1cc2c(cc1C)NC1=C(N2)OC(c2c[nH]c3ccc(COc4ccccc4)cc23)C1=O (centres undefined)
inactive: [4] 92 % of control | [5] 90 % of control | [6] 92 % of control

CCCCC1(O)C(=O)N(c2ccccc2)N(c2ccccc2)C1=O
inactive: [1] 102 % of control | [2] 102 % of control | [3] 96 % of control

C/C1=C/C2OC(=O)C3(C)C2C(CC2(C)OC1=CC2=O)OC3(O)C(C)C (centres undefined)
inactive: dose: 10.0 mg/kg/injection, schedule: Q01DX005 (ip), vehicle: saline + alcohol 100 % of control | dose: 20.0 mg/kg/injection, schedule: Q01DX005 (ip), vehicle: saline + alcohol 102 % of control | dose: 40.0 mg/kg/injection, schedule: Q01DX005 (ip), vehicle: saline + alcohol 99 % of control | dose: 80.0 mg/kg/injection, schedule: Q01DX005 (ip), vehicle: saline + alcohol 109 % of control

Clc1ccc2nc(CI)c(CI)nc2c1
inactive: dose: 5.5 mg/kg/injection, schedule: Q01DX009 (ip), vehicle: saline with Tween-80 104 % of control | dose: 8.3 mg/kg/injection, schedule: Q01DX009 (ip), vehicle: saline with Tween-80 95 % of control | dose: 12.5 mg/kg/injection, schedule: Q01DX009 (ip), vehicle: saline with Tween-80 100 % of control | dose: 18.7 mg/kg/injection, schedule: Q01DX009 (ip), vehicle: saline with Tween-80 118 % of control | dose: 25.0 mg/kg/injection, schedule: Q04DX003 (ip), vehicle: saline with Tween-80 118 % of control | dose: 50.0 mg/kg/injection, schedule: Q04DX003 (ip), vehicle: saline with Tween-80 118 % of control | dose: 100.0 mg/kg/injection, schedule: Q04DX003 (ip), vehicle: saline with Tween-80 122 % of control
